Where two headings read alike, the source gives them in different places.
Key:
human hepatocytes [1] = conditions: human primary hepatocytes; read-out: EC50, inhibition of glucose production; cited from earlier work
gluconeogenesis = conditions: rat hepatocytes, isolated rat kidneys, whole animal studies; cited from earlier work
cynomolgus monkeys = conditions: cited from earlier work
goto-kakizaki (GK) rats = conditions: cited from earlier work
overnight fasted rats = conditions: 2.5 to 40 mg/kg 1 h before liquid meal 20 kcal/kg; effect at doses over 10 mg/kg; cited from earlier work
Female ZDF rats = conditions: 100 mg/kg/day, 14 days; cited from earlier work
[2] = tested on: Zucker diabetic fatty (ZDF) rats; conditions: cited from earlier work; for glucose tolerance: CS-917 300 mg/kg and/or glyburide 100 mg/kg orally, 90 min before 2 g/kg glucose, 3 h following; for insulin secretion: CS-917 300 mg/kg, glyburide 100 mg/kg orally
ZDF rats = conditions: cited from earlier work
patients = conditions: first 6 h after dosing on day 14, versus day before first dose; cited from earlier work
[3] = cited from earlier work
[4] = one oral suspension dose 2.5 to 1000 mg after overnight fast; cited from earlier work
[5] = oral capsules 100, 200, 400 or 800 mg, 14 days; cited from earlier work
Tet/GSK-3-beta mice = conditions: cited from earlier work; for tau phosphorylation in the hippocampus: oral, 3 weeks, NP-01139 50 to 100 mg/kg/day, NP-12 100 to 200 mg/kg/day; for clinical signs: prolonged oral treatment
Male Sprague-Dawley rats = experiment: Mechanical allodynia induced by spinal nerve ligation (SNL) in rats; assay type: in vivo, rat; conditions: 30 mg/kg PO, post-SNL day 19, p<0.01 vs. vehicle
Description: Male Sprague-Dawley rats (Hsd:Sprague-Dawley®SD®, Harlan, Indianapolis, Ind., U.S.A.) weighing 223±2 g on Day 14 were housed three per cage. Animals had free access to food and water and were maintained on a 12:12 h light/dark schedule for the entire duration of the study. The animal colony was maintained at 21° C. and 60% humidity. All experiments were conducted in accordance with the International Association for the Study of Pain guidelines and were approved by the University of Minnesota Animal Care and Use Committee.
The Spinal Nerve Ligation (SNL) model was used to induce chronic neuropathic pain. […]
Baseline, post-injury and post-treatment values for non-noxious mechanical sensitivity were evaluated using 8 Semmes-Weinstein filaments (Stoelting, Wood Dale, Ill., USA) with varying stiffness (0.4, 0.7, 1.2, 2.0, 3.6, 5.5, 8.5, and 15 g) according to the up-down method. […] The mean and standard error of the mean (SEM) were determined for each paw in each treatment group. […]
Statistical analyses were conducted using Prism™ 4.01 (GraphPad, San Diego, Calif., USA). Mechanical hypersensitivity of the injured paw was determined by comparing pre-SNL to post-SNL values at Day 14. Data were analyzed using the Wilcoxon test. […] Drug effect was analyzed by comparing post-vehicle and post-drug values using the Friedman test followed by a Dunn's post hoc test. […]

human hepatocytes [6] = conditions: read-out: EC50, reduction of glucagon-induced glycogenolysis; cited from earlier work
rat hepatocytes = conditions: read-out: EC50, reduction of glucagon-induced glycogenolysis; cited from earlier work
[7] = rats; cited from earlier work
healthy conscious rats = conditions: glucagon 10 microg/kg iv; cited from earlier work
ob/ob mice = conditions: 30 mg/kg po, cited from earlier work
db/db mice [8] = conditions: cited from earlier work
db/db mice [9] = conditions: 60 mg/kg po qd, 9 days; cited from earlier work
[10] = single and multiple dose escalation; cited from earlier work
[11] = chronic 21-day study, 10-week old ZDF rats
[12] = 50, 100, 200 or 400 mg qd, 14 days

CCOC(=O)[C@H](C)NP(=O)(N[C@@H](C)C(=O)OCC)c1ccc(-c2nc(N)sc2CC(C)C)o1 [CS-917]
EC50 (human hepatocytes [1]): 300 nM | gluconeogenesis (gluconeogenesis): inhibit gluconeogenesis | plasma glucagons levels (cynomolgus monkeys; 60 mg/kg): increased | insulin levels (cynomolgus monkeys; 20 to 60 mg/kg, 3 h after administration): dose-dependently decreased | plasma glucagons (goto-kakizaki (GK) rats; 40 mg/kg): increased | plasma glucose levels (goto-kakizaki (GK) rats; 5 to 40 mg/kg, 3 h after administration): dose-dependently decreased | hepatic fructose 1,6-bisphosphate and fructose 6-phosphate (goto-kakizaki (GK) rats; 20 and 40 mg/kg, 4 h after administration): increased | AUC values of plasma glucose levels (overnight fasted rats): significantly dose dependently decreased | hyperglycemia (blood glucose) (Female ZDF rats): 166 ± 24 mg/dL | insulin levels, blood lactate, liver glycogen and liver triglycerides (Female ZDF rats): largely unaffected | plasma triglycerides (Female ZDF rats): tended to be lowered | polydipsia (Female ZDF rats): 15 ± 6.2 mL/day | glucose tolerance [2]: improved glucose tolerance | insulin secretion [2]: No stimulation of insulin secretion | glucose lowering (ZDF rats; [11]): effectively lowered glucose | minimum efficacious dose, glucose lowering (ZDF rats; [11]): 30 mg/kg | oral efficacy (ZDF rats; freely feeding and 6-h fasting ZDF rats, early and advanced disease states): good oral efficacy | blood glucose levels (patients): lower blood glucose levels | lactic acid AUC compared with placebo ([3]; 400 mg dose): increased | absorption, metabolism, clearance [3, 12]: rapidly absorbed, extensively metabolized, rapidly cleared | tolerability [3, 12]: well tolerated with no serious adverse events | lactic acid profiles ([3]; other dose groups (50, 100, 200 mg)): indifferent from placebo | tolerability [4]: well tolerated with nausea seen at 400 mg and vomiting seen at 800 and 1000 mg | tolerability [5]: well tolerated with no serious adverse events

CC1CC(=O)C(CC2C=CC=CC2)C1=O (centres unmarked) [NP-12]
tau phosphorylation in the hippocampus (Tet/GSK-3-beta mice): dose-dependent significant decrease | clinical signs (Tet/GSK-3-beta mice): not showing any apparent clinical signs

Cn1sc(=O)n(Cc2ccccc2)c1=O [NP-01139]
tau phosphorylation in the hippocampus (Tet/GSK-3-beta mice): dose-dependent significant decrease | clinical signs (Tet/GSK-3-beta mice): not showing any apparent clinical signs

O=C(N[C@@H](Cc1ccc(F)cc1)C(=O)N1CCC(O)CC1)c1cc2cc(Cl)ncc2[nH]1 [PSN-357]
mechanical allodynia (von Frey, up-down method) (Male Sprague-Dawley rats): reduced mechanical allodynia | EC50 (human hepatocytes [6]): 1100 nM | EC50 (rat hepatocytes): 1900 nM | t1/2 [7]: 4 h | minimum effective dose, inhibition of glucagon-stimulated elevation of blood glucose (healthy conscious rats): 3 mg/kg | blood glucose levels (ob/ob mice; 90 to 210 minutes post administration): reduced blood glucose levels | increase in liver glycogen (ob/ob mice; after 5 h): 66% | heart and skeletal muscle glycogen (db/db mice [8]; after 5 h): remained unaffected | liver glycogen (db/db mice [8]; after 5 h): increase in liver glycogen | reduction of blood glucose (db/db mice [8]; maintained after 5 h): 35% | hyperglycemia (db/db mice [9]): prevented hyperglycemia | increase in liver glycogen (db/db mice [9]): 57% | muscle glycogen, plasma insulin or alanine aminotransferase (db/db mice [9]): no changes | safety and tolerability [10]: safe and well tolerated

COc1ccc(Cl)cc1C(=O)NCCc1ccc(S(=O)(=O)NC(=O)NC2CCCCC2)cc1 [glyburide]
glucose tolerance [2]: improved glucose tolerance | insulin secretion [2]: positive insulin secretory response
